In the test the target is T1, PI3Kα (Homo sapiens, UniProt P42336).
T1 construct: purchased Invitrogen
As to the kind of experiment: In vitro PI3Kα enzymatic assay (ADP-Glo / Kinase-Glo, ATP 25 μM). The format is biochemical. As to conditions: mean ± SD of three determinations. The protocol: To screen the inhibitory activity of the target compounds against PI3Kα, the Kinase-Glo™ assay with ATP at 25 μM was utilised with PIK-75 as positive control. We chose to explore the SARs at three positions on the Imidazo[1,2-a]pyridine core. To start with, a set of 8-position modifications were prepared while keeping the morpholinyl amide substituent on 2-position fixed, since it allowed quick structure − activity profiling via coupling reactions of bromide with aryl borates or boronic acids. […] We then turned our attention back to the phenyl substituents.
Briefly, the compound, PI3K enzyme (PI3Kα from Invitrogen), the PIP2 (Life Technologies) substrate, and ATP (25 μM, Sigma) were diluted in kinase buffer to the indicated concentrations. The assay plate was covered and incubated at room temperature for 1 h. Then, the Kinase-Glo reagent (Promega) was added to the PI3Kα plate to stop the reaction, mixed briefly with centrifuge, shaken slowly on the shaker and then equilibrate for 120 min. Finally, add Kinase detection reagent to each well, shake 1 min, equilibrate for 30 min before reading on a plate reader for luminescence. The data were collected on Envision and presented in Excel. IC50 values were calculated from the inhibition curves.
(In general: ADP-Glo turns the ADP formed in a reaction into a luminescent signal.)

The mark [1] stands for this setting: PI3Kα, compound 10 μM, ATP 25 μM.
Setting [2] is: PI3Kα, compound 10 μM, ATP 25 μM, read-out: % Inhibition at 10 μM.

Where two headings read alike, the source gives them in different places.

A word on the inhibition: it is the drop in the measured response relative to a control, in per cent. What is called % Inhibition is the percentage by which the read-out fell short of the control. Read a low % Inhibition as a response near the control.

T1 sequence (P42336 whole entry): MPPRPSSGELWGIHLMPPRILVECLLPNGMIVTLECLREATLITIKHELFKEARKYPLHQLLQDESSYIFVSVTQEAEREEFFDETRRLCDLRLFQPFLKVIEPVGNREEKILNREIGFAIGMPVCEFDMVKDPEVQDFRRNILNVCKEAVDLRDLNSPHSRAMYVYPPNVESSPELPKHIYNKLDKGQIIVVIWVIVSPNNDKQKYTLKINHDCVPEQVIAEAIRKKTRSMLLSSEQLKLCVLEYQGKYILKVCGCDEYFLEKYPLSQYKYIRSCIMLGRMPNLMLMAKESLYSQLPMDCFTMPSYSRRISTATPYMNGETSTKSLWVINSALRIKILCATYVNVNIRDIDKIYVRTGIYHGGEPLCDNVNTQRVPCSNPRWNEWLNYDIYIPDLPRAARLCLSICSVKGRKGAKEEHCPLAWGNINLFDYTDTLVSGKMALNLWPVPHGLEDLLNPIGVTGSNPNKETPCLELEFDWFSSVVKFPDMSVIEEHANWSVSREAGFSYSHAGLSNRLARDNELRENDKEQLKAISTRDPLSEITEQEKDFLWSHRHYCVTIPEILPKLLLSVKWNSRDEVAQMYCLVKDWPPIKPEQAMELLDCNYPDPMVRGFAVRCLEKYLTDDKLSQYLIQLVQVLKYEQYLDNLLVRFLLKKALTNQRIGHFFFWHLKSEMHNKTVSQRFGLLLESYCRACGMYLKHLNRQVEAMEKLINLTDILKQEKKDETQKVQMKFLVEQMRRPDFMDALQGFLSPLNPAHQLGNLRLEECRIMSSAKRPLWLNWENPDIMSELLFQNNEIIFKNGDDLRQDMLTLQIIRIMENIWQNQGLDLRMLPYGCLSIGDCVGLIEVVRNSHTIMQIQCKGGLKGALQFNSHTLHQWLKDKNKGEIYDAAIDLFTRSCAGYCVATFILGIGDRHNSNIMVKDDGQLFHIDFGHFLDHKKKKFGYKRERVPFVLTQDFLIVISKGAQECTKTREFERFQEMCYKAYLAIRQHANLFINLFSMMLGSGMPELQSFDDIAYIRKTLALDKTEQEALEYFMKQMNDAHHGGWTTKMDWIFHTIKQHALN
T1 sequence (P27986 whole entry partner): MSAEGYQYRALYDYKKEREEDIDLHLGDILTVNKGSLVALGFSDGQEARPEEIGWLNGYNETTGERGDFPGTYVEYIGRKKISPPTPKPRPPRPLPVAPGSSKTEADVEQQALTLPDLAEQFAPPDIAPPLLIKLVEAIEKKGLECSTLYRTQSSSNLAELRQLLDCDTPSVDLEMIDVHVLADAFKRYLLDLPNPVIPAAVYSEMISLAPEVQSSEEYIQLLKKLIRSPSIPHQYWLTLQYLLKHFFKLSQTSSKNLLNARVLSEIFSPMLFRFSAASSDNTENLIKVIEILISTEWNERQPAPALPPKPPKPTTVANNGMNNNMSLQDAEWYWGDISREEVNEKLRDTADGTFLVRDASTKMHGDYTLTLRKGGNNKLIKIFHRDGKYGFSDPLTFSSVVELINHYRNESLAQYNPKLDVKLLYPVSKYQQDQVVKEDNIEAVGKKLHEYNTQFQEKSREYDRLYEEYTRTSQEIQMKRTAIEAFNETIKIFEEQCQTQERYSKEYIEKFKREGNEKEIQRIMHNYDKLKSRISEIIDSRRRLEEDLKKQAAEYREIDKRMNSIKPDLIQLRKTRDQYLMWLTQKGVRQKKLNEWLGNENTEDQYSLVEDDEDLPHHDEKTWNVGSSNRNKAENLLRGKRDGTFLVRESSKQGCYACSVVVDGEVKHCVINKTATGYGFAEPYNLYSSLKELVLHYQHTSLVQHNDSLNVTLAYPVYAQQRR

As for `Cc1ccc([N+](=O)[O-])cc1S(=O)(=O)N(C)/N=C/c1cnc2ccc(Br)cn12` [PIK-75, reference compound], the inhibition at 10 µM (read-out: % Inhibition at 10 μM, PI3Kα, compound 10 μM, ATP 25 μM) turned out to be 98.2 ± 1.6%.
As for “N,N-Diethyl-3–(6-methyl-2-(morpholine-4-carbonyl)Imidazo[1,2-a]pyridin-8-yl)benzenesulfonamide [Compound 19]”, under setting [1], the “% Inhibition at 10 μM” value was found to be 58.5 ± 1.6%.
Consider `COc1ncc(-c2cc(C)cn3cc(C(=O)NCCCN4CCOCC4)nc23)cc1NS(=O)(=O)c1ccc(F)cc1F` [Compound 39, 8–(5-((2,4-Difluorophenyl)sulfonamido)-6-methoxypyridin-3-yl)-6-methyl-N-(3-morpholinopropyl)Imidazo[1,2-a]pyridine-2-carboxamide], for which the inhibition at 10 µM under setting [2] was 70.2 ± 3.6%.
`Cc1cc(-c2ccc(F)cc2)c2nc(C(=O)N3CCOCC3)cn2c1` [Compound 15, (8–(4-Fluorophenyl)-6-methylImidazo[1,2-a]pyridine-2-yl)(morpholino)methanone]: the inhibition at 10 µM under setting [2] was 31.9 ± 2.9%.
In the case of `COc1ncc(-c2cc(C)cn3cc(C(=O)N4CCN(C)CC4)nc23)cc1NS(=O)(=O)c1ccc(F)cc1` [Compound 44, 4-Fluoro-N-(2-methoxy-5–(6-methyl-2–(4-methylpiperazine-1-carbonyl)Imidazo[1,2-a]pyridin-8-yl)pyridin-3-yl)benzenesulfonamide], under setting [2], the inhibition at 10 µM was 53.4 ± 5.1%.
For `COc1ncc(-c2cc(C)cn3cc(C(=O)NCCCN4CCOCC4)nc23)cc1NS(=O)(=O)c1ccc(F)cc1` [Compound 41, 8–(5-((4-Fluorophenyl)sulfonamido)-6-methoxypyridin-3-yl)-6-methyl-N-(3-morpholinopropyl)Imidazo[1,2-a]pyridine-2-carboxamide], the inhibition at 10 µM under setting [2] was found to be 75.7 ± 2.9%.
For `COc1ncc(-c2cccn3cc(C(=O)N4CCC(C)CC4)nc23)cc1NS(=O)(=O)c1ccc(F)cc1` [Compound 46, 4-Fluoro-N-(2-methoxy-5–(2-(4-methylpiperidine-1-carbonyl)Imidazo[1,2-a]pyridin-8-yl)pyridin-3-yl)benzenesulfonamide], the inhibition at 10 µM under setting [2] worked out at 40.2 ± 3%.
With `COc1ncc(-c2cc(C)cn3cc(C(=O)N4CCOCC4)nc23)cc1NS(=O)(=O)c1ccc(F)cc1` [Compound 42, 4-Fluoro-N-(2-methoxy-5–(6-methyl-2-(morpholine-4-carbonyl)Imidazo[1,2-a]pyridin-8-yl)pyridin-3-yl)benzenesulfonamide], the inhibition at 10 µM under setting [2] worked out at 69.2 ± 6.4%.
Take `Cc1cc(-c2cccnc2)c2nc(C(=O)N3CCOCC3)cn2c1` [Compound 20, (6-Methyl-8-(pyridin-3-yl)Imidazo[1,2-a]pyridin-2-yl)(morpholino)methanone]: the inhibition at 10 µM under setting [2] was determined as 30.2 ± 2.1%.
Consider `Cc1cc(-c2ccccc2F)c2nc(C(=O)N3CCOCC3)cn2c1` [Compound 17, (8–(2-Fluorophenyl)-6-methylImidazo[1,2-a]pyridin-2-yl)(morpholino)methanone], for which, under setting [2], the inhibition at 10 µM turned out to be 14.1 ± 2.7%.
For “(6-Methyl-8–(3-(morpholinosulfonyl)phenyl)Imidazo[1,2-a]pyridin-2-yl)(pyrrolidin-1-yl)methanone [Compound 27]”, the “% Inhibition at 10 μM” value under setting [1] is reported as 60.9 ± 6.0%.
Take `Cc1cc(-c2cccc(F)c2)c2nc(C(=O)N3CCC(C)CC3)cn2c1` [Compound 29, (8–(3-Fluorophenyl)-6-methylImidazo[1,2-a]pyridin-2-yl)(4-methylpiperidin-1-yl)methanone]: the inhibition at 10 µM under setting [2] is 30.4 ± 3.1%.
Take `Cc1cc(-c2ccc(F)cc2)c2nc(C(=O)N3CCCC3)cn2c1` [Compound 22, (8–(4-Fluorophenyl)-6-methylImidazo[1,2-a]pyridin-2-yl)(pyrrolidin-1-yl)methanone]: the inhibition at 10 µM under setting [2] stood at 33.3 ± 4.2%.
For `Cc1cc(-c2ccc(NC(=O)c3cccc(F)c3)cc2)c2nc(C(=O)N3CCCC3)cn2c1` [Compound 26, 3-Fluoro-N-(4–(6-methyl-2-(pyrrolidine-1-carbonyl)Imidazo[1,2-a]pyridin-8-yl)phenyl)benzamide], the inhibition at 10 µM under setting [2] turned out to be 57.9 ± 4.6%.
In the case of `COc1ncc(-c2cc(C)cn3cc(C(=O)N4CCC(C)CC4)nc23)cc1NS(=O)(=O)c1ccc(F)cc1` [Compound 43, 4-Fluoro-N-(2-methoxy-5–(6-methyl-2–(4-methylpiperidine-1-carbonyl)Imidazo[1,2-a]pyridin-8-yl)pyridin-3-yl)benzenesulfonamide], the inhibition at 10 µM under setting [2] was found to be 62.8 ± 4.6%.
On to `COc1ncc(-c2cc(C)cn3cc(C(=O)N4CCCC4)nc23)cc1NS(=O)(=O)c1ccccc1` [Compound 34, N-(2-methoxy-5–(6-methyl-2-(pyrrolidine-1-carbonyl)Imidazo[1,2-a]pyridin-8-yl)pyridin-3-yl)benzenesulfonamide], for which, under setting [2], the inhibition at 10 µM turned out to be 49.8 ± 1.6%.
Take `Cc1cc(-c2cccnc2)c2nc(C(=O)N3CCCC3)cn2c1` [Compound 24, (6-Methyl-8-(pyridin-3-yl)Imidazo[1,2-a]pyridin-2-yl)(pyrrolidin-1-yl)methanone]: the inhibition at 10 µM under setting [2] is 29.6 ± 2.1%.
For the compound `Cc1cc(-c2cccc(F)c2)c2nc(C(=O)N3CCOCC3)cn2c1` [Compound 16, (8–(3-Fluorophenyl)-6-methylImidazo[1,2-a]pyridin-2-yl)(morpholino)methanone], the inhibition at 10 µM under setting [2] is 38.2 ± 3.6%.
Same read-out and setting: to `Cc1cc(-c2ccncc2)c2nc(C(=O)N3CCC(C)CC3)cn2c1` [Compound 30, (6-Methyl-8-(pyridin-4-yl)Imidazo[1,2-a]pyridin-2-yl)(4-methylpiperidin-1-yl)methanone] belongs 9.3 ± 1.7%; to `CCN(CC)S(=O)(=O)c1cccc(-c2cc(C)cn3cc(C(=O)N4CCCC4)nc23)c1` [Compound 28, N,N-Diethyl-3–(6-methyl-2-(pyrrolidine-1-carbonyl)Imidazo[1,2-a]pyridin-8-yl)benzenesulfonamide], 66.1 ± 4.4%; to `COc1ncc(-c2cc(Cl)cn3cc(C(=O)NCCCN4CCOCC4)nc23)cc1NS(=O)(=O)c1ccc(F)cc1F` [Compound 45, 6-Chloro-8–(5-((2,4-difluorophenyl)sulfonamido)-6-methoxypyridin-3-yl)-N-(3-morpholinopropyl)Imidazo[1,2-a]pyridine-2-carboxamide], 59.8 ± 3.5%.
Turning to “1-Cyclohexyl-3–(3-(6-methyl-2–(4-methylpiperidine-1-carbonyl)Imidazo[1,2-a]pyridin-8-yl)phenyl)urea [Compound 33]”, the “% Inhibition at 10 μM” value under setting [1] is 44.5 ± 1.2%.
Consider `Cc1cc(-c2ccc(NC(=O)c3cccc(F)c3)cc2)c2nc(C(=O)N3CCOCC3)cn2c1` [Compound 18, 3-Fluoro-N-(4–(6-methyl-2-(morpholine-4-carbonyl)Imidazo[1,2-a]pyridin-8-yl)phenyl)benzamide], for which the inhibition at 10 µM under setting [2] was 47.6 ± 3.9%.
The same measure, in the same setting: the same measure for `COc1ccc(-c2cc(C)cn3cc(C(=O)N4CCOCC4)nc23)cn1` [Compound 21, (8–(6-Methoxypyridin-3-yl)-6-methylImidazo[1,2-a]pyridin-2-yl)(morpholino)methanone]: 39.9 ± 3%; for `Cc1cc(-c2cccc(F)c2)c2nc(C(=O)N3CCCC3)cn2c1` [Compound 23, (8–(3-Fluorophenyl)-6-methylImidazo[1,2-a]pyridin-2-yl)(pyrrolidin-1-yl)methanone]: 43.9 ± 1.8%; for `Cc1cc(-c2cccnc2)c2nc(C(=O)N3CCC(C)CC3)cn2c1` [Compound 31, (6-Methyl-8-(pyridin-3-yl)Imidazo[1,2-a]pyridin-2-yl)(4-methylpiperidin-1-yl)methanone]: 28.5 ± 1.6%.
Still for that read-out and setting: to `COc1ncc(-c2cc(C)cn3cc(C(=O)N4CCOCC4)nc23)cc1NS(=O)(=O)c1ccc(F)cc1F` [Compound 37, 2,4-Difluoro-N-(2-methoxy-5–(6-methyl-2-(morpholine-4-carbonyl)Imidazo[1,2-a]pyridin-8-yl)pyridin-3-yl)benzenesulfonamide] belongs 67.5 ± 0.3%.
Same read-out and setting: to `COc1ccc(-c2cc(C)cn3cc(C(=O)N4CCCC4)nc23)cn1` [Compound 25, (8–(6-Methoxypyridin-3-yl)-6-methylImidazo[1,2-a]pyridin-2-yl)(pyrrolidin-1-yl)methanone] belongs 44.3 ± 1.5%.
With “N,N-Diethyl-3–(6-methyl-2–(4-methylpiperidine-1-carbonyl)Imidazo[1,2-a]pyridin-8-yl)benzenesulfonamide [Compound 32]”, under setting [1], the “% Inhibition at 10 μM” value turned out to be 50.6 ± 0.9%.
Consider `COc1ncc(-c2cc(C)cn3cc(C(=O)NCCN4CCOCC4)nc23)cc1NS(=O)(=O)c1ccc(F)cc1F` [Compound 38, 8–(5-((2,4-Difluorophenyl)sulfonamido)-6-methoxypyridin-3-yl)-6-methyl-N-(2-morpholinoethyl)Imidazo[1,2-a]pyridine-2-carboxamide], for which the inhibition at 10 µM under setting [2] was determined as 81.6 ± 2.8%.

The values above are taken from paper PMC9858543, “Design, synthesis and evaluation of 2, 6, 8-substituted Imidazopyridine derivatives as potent PI3Kα inhibitors” (Journal of Enzyme Inhibition and Medicinal Chemistry, 2023).
